Measurements as given in patent US10851108B2, “Substituted bicyclic heterocyclic compounds” (BRISTOL-MYERS SQUIBB COMPANY, priority 2016, dated 2020).

Target: hROMK (human Kir1.1) (Homo sapiens (Human), UniProt P48048)
Assay: Thallium Flux Assay
Format: cell-based
Settings: CHO T-Rex hROMK stable cell line, 10-point concentration response; read-out: hROMK Th+ Flux IC50
Description: Solutions and reagents: Thallium flux assay was performed using FluxOR kit (F10017, Life Technologies). Loading buffer, assay buffer and stimulus buffer were prepared using kit components. HBSS (Hank's balanced salt solution, Cat #14025-092) was purchased separately from Life Technologies.
To prepare 10 ml of loading buffer: 10 μl of FluxOR dye (reconstituted in DMSO) was first added to 100 μl of powerload concentrate and this mix along with 100 μl of Probenicid (100×) was then added to 9.79 ml of HBSS. Assay buffer (10 ml) was prepared by addition of 2 ml of FluxOR chloride free buffer (5×), 100 μl of Probenicid (100×), and 0.2 ml of Ouabain (13.77 mM) to 7.7 ml of deionized water. Stimulus buffer was composed of 15 mM Tl2SO4, 0.75 mM K2SO4 in FluxOR chloride free buffer (diluted to 1× using deionized water). The final concentration of Tl2SO4 and K2SO4 in the assay plate was 3 mM and 0.15 mM, respectively.
Plating and induction of cells: The CHO T-Rex hROMK (human Kir1.1) stable cell line was maintained in Ham's F12 media supplemented with 10% FBS, 1% Penicillin-Streptomycin, 500 μg/ml Zeocin and 10 μg/ml Blasticidin at 37° C. in a 5% CO2 incubator. One day before the experiment, the cells were dissociated by incubation with Versene solution (15040-066, Life Technologies) for 10 minutes at 37° C. followed by addition of growth media. The cell suspension was centrifuged at 1200 rpm for 5 min. After discarding the supernatant, the cells were resuspended in fresh growth media and cell concentration was determined using a hemocytometer. Next, 0.5 μg/ml of Doxycycline was added to the cell suspension to induce hROMK channel expression and 50 μl (10,000 cells/well) of cell suspension was added to each well of a poly-D lysine coated 384 well black, optically clear bottom plate (6007718, Perkin Elmer). The assay plate was kept at 37° C. in a 5% CO2 incubator.
Assay protocol: On the day of experiment, media was removed and loading buffer was added (30 μl/well) to the assay plate. The cells were incubated in the loading buffer for 30 minutes at 37° C. The loading buffer was then replaced by assay buffer (30 μl/well) followed by addition of test compounds or controls. The cells were incubated with compounds for 30 minutes and the plate was then mounted on FlexStation (Molecular Devices) for fluorescence read out with excitation and emission wavelengths at 488 and 525 nm, respectively. Each well was read for 90 sec at 2 sec interval and the stimulus buffer was added after 20 seconds of baseline recording. The final DMSO concentration was either 0.5 or 1% in the assay plate. […] controls were defined by addition of DMSO or 3 μM of a standard ROMK inhibitor, respectively, to the wells instead of a test compound.
A 10-point concentration response curve was used to estimate the IC50 value of test compounds.
The data in Table 3 is reported with two significant figures.

hROMK (human Kir1.1), sequence (P48048 whole entry): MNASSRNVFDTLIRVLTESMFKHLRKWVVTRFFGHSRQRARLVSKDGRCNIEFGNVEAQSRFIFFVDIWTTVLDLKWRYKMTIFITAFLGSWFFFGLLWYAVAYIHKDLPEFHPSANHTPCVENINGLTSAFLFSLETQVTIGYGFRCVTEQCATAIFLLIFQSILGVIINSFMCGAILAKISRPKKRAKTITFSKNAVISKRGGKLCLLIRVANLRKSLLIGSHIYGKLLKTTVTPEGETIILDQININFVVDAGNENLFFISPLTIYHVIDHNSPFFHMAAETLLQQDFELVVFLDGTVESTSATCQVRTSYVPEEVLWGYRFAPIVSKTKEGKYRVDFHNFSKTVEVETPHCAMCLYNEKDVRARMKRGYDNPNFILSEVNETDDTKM

Structure (SMILES)	IC50 [nM]
Cc1c(C(O)CN2CCc3nc(-n4ccc5c(C#N)cccc54)ncc3C2)ccc2c1COC2=O (single isomer, unassigned) [Example 1-II, 1-(6-(2-hydroxy-2-(4-methyl-1-oxo-1,3-dihydroisobenzofuran-5-yl)ethyl)-5,6,7,8-tetrahydropyrido[4,3-d]pyrimidin-2-yl)-1H-indole-4-carbonitrile]	460
Cn1c(=O)oc2ccc(C(O)CN3CCc4nc(-n5ncc6c(C#N)cccc65)ncc4C3)cc21 (single isomer, unassigned) [Example 3-I, 1-(6-(2-hydroxy-2-(3-methyl-2-oxo-2,3-dihydrobenzo[d]oxazol-5-yl)ethyl)-5,6,7,8-tetrahydropyrido[4,3-d]pyrimidin-2-yl)-1H-indazole-4-carbonitrile]	740
Cn1c(=O)oc2ccc(C(O)CN3CCc4nc(-n5ncc6c(C#N)cccc65)ncc4C3)cc21 (single isomer, unassigned) [Example 3-II, 1-(6-(2-hydroxy-2-(3-methyl-2-oxo-2,3-dihydrobenzo[d]oxazol-5-yl)ethyl)-5,6,7,8-tetrahydropyrido[4,3-d]pyrimidin-2-yl)-1H-indazole-4-carbonitrile]	1600
Cc1c(C(O)CN2CCc3nc(-n4cc(C#N)c5ccccc54)ncc3C2)ccc2c1COC2=O (single isomer, unassigned) [Example 8-II, 1-(6-(2-hydroxy-2-(4-methyl-1-oxo-1,3-dihydroisobenzofuran-5-yl)ethyl)-5,6,7,8-tetrahydropyrido[4,3-d]pyrimidin-2-yl)-1H-indole-3-carbonitrile]	83
Cc1c(C(CO)N2CCc3nc(-n4cc(C#N)c5ccccc54)ncc3C2)ccc2c1COC2=O (single isomer, unassigned) [Example 9-I, 1-(6-(2-hydroxy-1-(4-methyl-1-oxo-1,3-dihydroisobenzofuran-5-yl)ethyl)-5,6,7,8-tetrahydropyrido[4,3-d]pyrimidin-2-yl)-1H-indole-3-carbonitrile]	3000
Cc1c(C(CO)N2CCc3nc(-n4cc(C#N)c5ccccc54)ncc3C2)ccc2c1COC2=O (single isomer, unassigned) [Example 9-II, 1-(6-(2-hydroxy-1-(4-methyl-1-oxo-1,3-dihydroisobenzofuran-5-yl)ethyl)-5,6,7,8-tetrahydropyrido[4,3-d]pyrimidin-2-yl)-1H-indole-3-carbonitrile]	1800
Cc1c(C(O)CN2CCc3nc(-n4ncc5c(C#N)cccc54)ncc3C2)ccc2c1COC2=O (single isomer, unassigned) [Example 12-I, 1-(6-(2-hydroxy-2-(4-methyl-1-oxo-1,3-dihydroisobenzofuran-5-yl)ethyl)-5,6,7,8-tetrahydropyrido[4,3-d]pyrimidin-2-yl)-1H-indazole-4-carbonitrile]	38
Cc1c(C(O)CN2CCc3nc(-n4ncc5c(C#N)cccc54)ncc3C2)ccc2c1COC2=O (single isomer, unassigned) [Example 12-II, 1-(6-(2-hydroxy-2-(4-methyl-1-oxo-1,3-dihydroisobenzofuran-5-yl)ethyl)-5,6,7,8-tetrahydropyrido[4,3-d]pyrimidin-2-yl)-1H-indazole-4-carbonitrile]	410
Cc1c(C(O)CN2CCc3nc(-n4ccc5cc(C#N)ccc54)ncc3C2)ccc2c1COC2=O (single isomer, unassigned) [Example 16-II, 1-(6-(2-hydroxy-2-(4-methyl-1-oxo-1,3-dihydroisobenzofuran-5-yl)ethyl)-5,6,7,8-tetrahydropyrido[4,3-d]pyrimidin-2-yl)-1H-indole-5-carbonitrile]	380
N#Cc1ccc2c(ccn2-c2ncc3c(n2)CCN(CC(O)c2ccc4c(c2)COC4=O)C3)c1 (single isomer, unassigned) [Example 17-I, 1-(6-(2-hydroxy-2-(1-oxo-1,3-dihydro-isobenzofuran-5-yl)ethyl)-5,6,7,8-tetrahydropyrido[4,3-d]pyrimidin-2-yl)-1H-indole-5-carbonitrile]	340
N#Cc1ccc2c(ccn2-c2ncc3c(n2)CCN(CC(O)c2ccc4c(c2)COC4=O)C3)c1 (single isomer, unassigned) [Example 17-II, 1-(6-(2-hydroxy-2-(1-oxo-1,3-dihydro-isobenzofuran-5-yl)ethyl)-5,6,7,8-tetrahydropyrido[4,3-d]pyrimidin-2-yl)-1H-indole-5-carbonitrile]	850
N#Cc1cccc2c1ccn2-c1ncc2c(n1)CCN(CC(O)c1ccc3c(c1)COC3=O)C2 (single isomer, unassigned) [Example 18-II, 1-(6-(2-hydroxy-2-(1-oxo-1,3-dihydro-isobenzofuran-5-yl)ethyl)-5,6,7,8-tetrahydropyrido[4,3-d]pyrimidin-2-yl)-1H-indole-4-carbonitrile]	580
Cc1c(C(O)CN2CCc3nc(-n4ccc5c(C#N)ccnc54)ncc3C2)ccc2c1COC2=O (single isomer, unassigned) [Example 19-I, 1-(6-(2-hydroxy-2-(4-methyl-1-oxo-1,3-dihydroisobenzofuran-5-yl)ethyl)-5,6,7,8-tetrahydropyrido[4,3-d]pyrimidin-2-yl)-1H-pyrrolo[2,3-b]pyridine-4-carbonitrile]	460
Cc1c(C(O)CN2CCc3nc(-n4ccc5c(C#N)ccnc54)ncc3C2)ccc2c1COC2=O (single isomer, unassigned) [Example 19-II, 1-(6-(2-hydroxy-2-(4-methyl-1-oxo-1,3-dihydroisobenzofuran-5-yl)ethyl)-5,6,7,8-tetrahydropyrido[4,3-d]pyrimidin-2-yl)-1H-pyrrolo[2,3-b]pyridine-4-carbonitrile]	1900
Cn1c(=O)oc2ccc(C(O)CN3CCc4nc(-n5ccc6c(C#N)cccc65)ncc4C3)cc21 (single isomer, unassigned) [Example 22-I, 1-(6-(2-hydroxy-2-(3-methyl-2-oxo-2,3-dihydrobenzo[d]oxazol-5-yl)ethyl)-5,6,7,8-tetrahydropyrido[4,3-d]pyrimidin-2-yl)-1H-indole-4-carbonitrile]	1000
Cn1c(=O)oc2ccc(C(O)CN3CCc4nc(-n5ccc6c(C#N)cccc65)ncc4C3)cc21 (single isomer, unassigned) [Example 22-II, 1-(6-(2-hydroxy-2-(3-methyl-2-oxo-2,3-dihydrobenzo[d]oxazol-5-yl)ethyl)-5,6,7,8-tetrahydropyrido[4,3-d]pyrimidin-2-yl)-1H-indole-4-carbonitrile]	700
Cc1c(C(CO)N2CCc3nc(Nc4ccc(C#N)c(F)c4)ncc3C2)ccc2c1COC2=O (single isomer, unassigned) [Example 29-I, 2-fluoro-4-((6-(2-hydroxy-1-(4-methyl-1-oxo-1,3-dihydroisobenzofuran-5-yl)ethyl)-5,6,7,8-tetrahydropyrido [4,3-d]pyrimidin-2-yl)amino)benzonitrile]	3000
Cc1c(C(CO)N2CCc3nc(Nc4ccc(C#N)c(F)c4)ncc3C2)ccc2c1COC2=O (single isomer, unassigned) [Example 29-II, 2-fluoro-4-((6-(2-hydroxy-1-(4-methyl-1-oxo-1,3-dihydroisobenzofuran-5-yl)ethyl)-5,6,7,8-tetrahydropyrido [4,3-d]pyrimidin-2-yl)amino)benzonitrile]	2100
